In patent US12133523B2, “Anti-freezing composition comprising self-assembly compound” (Korea University Research and Business Foundation, priority 2019, dated 2024):
Entries after “also recorded” stand apart in the source; their conditions may differ. Residues, ends and D or L forms follow the SMILES beside them. *: point of attachment. Fmoc = O=C(OCC1c2ccccc2-c2ccccc21)*

How the values were obtained:
[1] = Critical micellar concentration from emission intensity versus concentration; type: physicochemical
[2] = tested on: mouse embryonic stem cells (mESCs); experiment: Cryopreservation activity for mESC (freeze/thaw survival, differentiation); type: cell-based; settings: sample solution 10% (v/v), FBS 40%, media 50%; -80 °C then liquid nitrogen
Experimental: 250 μL of trypsinized mouse ES cells, 200 μL of FBS and 50 μL of cryopreservation solution (0.005 μM, 0.01 μM, 0.05 μM, and 0.1 μM) were frozen in a rapid freezer for 2 days, and then stored in an LN2 tank. Thawing was performed in a 37° C. constant temperature water bath. The cell frozen stock mixture was inoculated in 4.5 mL medium of 15 mL tube, and then centrifuged at 1000 rpm for 5 minutes. Cell pellets were added with 1 mL medium and inoculated in a 6-well plate.
A cell storage solution was prepared with a sample solution 10% (v/v), FBS 40% (v/v), and media 50% (v/v) according to the present invention, and frozen at −80° C. using a rapid freezer, then the cells were stored for 2 days, and further stored in a liquid nitrogen tank for 2 days or more. Then, the cells were thawed and used in the experiment. In addition, the cells were cultured by treatment with a leukemia inhibitory factor (LIF) to confirm the differentiation ability of stem cells. All the controls were cultured and differentiated under the same conditions, except that deionized water was added instead of the sample according to the present invention.

[3] = tested on: mouse embryonic stem cells (mESCs); experiment: mESC cell viability by CCK-8 assay and crystal violet dye; type: cell-based; settings: for toxicity to mESC: 5 to 20 uM, CCK-8 and crystal violet dye; for cell viability with respect to mESC: CCK-8
Experimental: In a 60 mm cell culture dish coated with 0.1% gelatin (Sigma), mouse ES cells were cultured in a medium DMEM (Hyclone), to which 2 mM L-glutamine (Mediatech Inc.), 1% penicillin/streptomycin (Mediatech Inc.), 15% heat-inactivated fetal bovine serum (Hyclone), 20 mM HEPES-pH 7.3 (Cellgro), 0.1 mM MEM non-essential amino acid (Cellgro), 0.1 mM 2-mercaptoethanol (Sigma) and 1000 U/mL LIF (Millipore) are added, in order to prevent differentiation.
Mouse ES cells were seeded by 8×10^4 cells per well in a 96-well plate containing the above various cryopreservation solutions. After 9 hours, CCK-8 reagent was added and fluorescence intensity was measured using an ELISA Reader (TECAN).
[…] Cells were washed with 500 μL of PBS and 500 μL of 4% PFA was added thereto for 15 minutes. The fixed cells were washed twice with 500 μL of PBS and 0.5% crystal violet solution was added thereto for 30 minutes. The stained cells were washed with tap water.

[4] = Ice recrystallization inhibition (IRI) splat assay, MLGS from DFOM images; settings: for IRI effect: ice recrystallized 30 minutes at -6 °C
Experimental: In order to more clearly confirm the effect of inhibiting ice crystal growth, ice recrystallization inhibition (IRI) characteristics were analyzed. Analysis of ice recrystallization was performed by reference Mitchell, D. E., Clarkson, G., Fox, D. J., Vipond, R. A., Scott, P., & Gibson, M. I. (2017). Antifreeze Protein Mimetic Metallohelices with Potent Ice Recrystallization Inhibition Activity. Journal of the American Chemical Society, 139(29), 9835-9838 and Budke, C., Heggemann, C., Koch, M., Sewald, N., & Koop, T. (2009). Ice Recrystallization Kinetics in the Presence of Synthetic Antifreeze Glycoprotein Analogues Using the Framework of LSW Theory. The Journal of Physical Chemistry B, 113(9), 2865-2873. More specifically, a 10 μL sample was dropped from a height of 1.5 m onto a surface of a cover glass precooled to −60° C. so as to form a thin film of ice. […] During recrystallization of ice, dark-field optical microscopy (DFOM) images were taken, and ten of the largest ice crystal domains were chosen and a mean value thereof was obtained to evaluate the IRI activity. A mean largest grain size (MLGS) analysis was repeated three times.

[5] = Gold nanoparticle (MPA-AuNP) colorimetric freeze/thaw assay for TH and IRI activity; settings: for aggregation of gold particles after freezing/thawing (absorption peak shift 525 nm to 650 nm): 50 μL of 0.5 mM sample in 350 μL of 300 μM MPA-AuNP, -65 °C 23 min
Experimental: Thermal hysteresis (TH) as anti-freezing activity was measured in accordance with the method described in Park, J.-I., Lee, J. H., Gwak, Y., Kim, H. J., Jin, E., & Kim, Y.-P. (2013). Frozen assembly of gold nanoparticles for rapid analysis of antifreeze protein activity. Biosensors and Bioelectronics, 41, 752-757, and ice recrystallization inhibition (IRI) activity was measured based on Mitchell, D. E., Congdon, T., Rodger, A., & Gibson, M. I. (2015). Gold Nanoparticle Aggregation as a Probe of Antifreeze (Glyco) Protein-Inspired Ice Recrystallization Inhibition and Identification of New IRI Active Macromolecules. Scientific Reports, 5(1). More specifically, when dispersing AFP in a solution in which gold nanoparticles are dispersed, and freezing the solution then thawing again, if the AFP has good conjugating force with an ice crystal surface, the dispersibility of gold nanoparticles is good to maintain an original color of the solution, whereas if it has weak conjugating force, AFP is precipitated, and when ice crystals are rapidly formed, the solution is subjected to color change.
Gold nanoparticles (Cit-AuNP) stabilized with citric acid were synthesized to prepare mercaptopropionic acid (MPA)-AuNP. 20 mL of a storage solution containing 1 mM HAuCl4·3H2O was added to 50 mL of deionized water (DI water). After the solution was stirred and heated to a boiling point, 30 mM sodium citric acid in 2 mL of deionized water was further added to the solution and heated for 20 minutes. The color of the solution changed from bright yellow to burgundy. […] An average size of MPA-capped AuNP was measured to be about 16.7 nm.
On a microwell plate, 50 μL of a solution containing 0.5 mM sample was added to 350 μL of 300 μM MPA-AuNP solution, respectively. […] To quantitatively confirm the color change before and after freezing, absorption spectra of each mixture were measured with a UH5300 spectrometer before and after freezing. The spectra were measured from 300 nm to 900 nm at a scan speed of 400 nm/min, and aggregation properties (E525/E650) of each mixture were compared. […]

sperms = experiment: Sperm cryopreservation followed by in vitro fertilization and embryo culture; type: cell-based, C57BL/6J mice; settings: sperms frozen in 3% skim milk containing 10 to 20 μM
Experimental: To cryopreserve sperms, a modified 18% raffinose pentahydrate/3% skim milk (Difco, Becton Dickinson) solution containing 100 mM L-glutamine or skim milk, to which a cryoprotectant according to the present invention was added, was prepared. A human tubal fluid (HTF) medium was used during the IVF process, and a potassium simplex optimized medium (PSOM) was used while 2-cell embryo was cultured to a blastocyst stage.
A sperm cryopreservation solution dispensed in 60 μL was placed in a 35 mm culture dish and covered with paraffin oil. After male mice were sacrificed with […], a tail of epididymis was removed and divided into pieces, and all fats and blood were removed while observing under a microscope before transferring to the cryopreservation solution. The culture dish was kept at 37° C. for 3 minutes and gently stirred every minute to allow sperms to disperse from the tissues. […]
Frozen sperms were thawed under various conditions, then added to IVF drops containing eggs and incubated at 37° C. […] After 24 hours from fertilization, a fertilization rate was calculated using the total number of 2-cell embryos as a percentage based on the total number of eggs.
After performing IFV, 2-cell embryos were classified into a group to be cultured in the blastocyst stage and a group to be implanted in the oviduct of ICR females. After giving birth, the number of pups was recorded. […]

[6] = Freezing control on food (beef frozen at -20 °C, thawed; SEM, optical microscope, TEM)
Experimental: In order to determine whether Fmoc-FFT can be used as a cryoprotectant for foods, Fmoc-FFT was added to beef (FIG. 22a), then frozen at −20° C. for one day, thawed at room temperature, and then SEM images were observed (FIGS. 22b and d).
After freezing and thawing, Fmoc-FFT was added to water in order to confirm the beef tissue, frozen at −20° C., then the process of recrystallization of ice was observed under an optical microscope.
Further, in order to confirm the tissue change in more detail, the thawed tissue was rapidly frozen in liquid nitrogen, then cut while maintaining −20° C., and the internal tissue was checked. […] It was observed that, when the Fmoc-FFT was not added, the size of tissue pore was 22±8.6 μm, while it was 5±2.3 μm when adding the same.

Row | Compound | survival and proliferation of mESC after freezing and thawing [2] | toxicity to mESC [3] | IRI effect [4] | cell viability with respect to mESC [3] | further results
1 | CC(O)C(NC(=O)C(CCC(=O)O)NC(=O)C(Cc1ccccc1)NC(=O)C(CCC(=O)O)NC(=O)C(Cc1ccccc1)NC(=O)OCC1c2ccccc2-c2ccccc21)C(N)=O (stereo not shown) [Fmoc-FEFET] (Fmoc-FEFET-NH2; configuration not given here) | survival and proliferation of mESC was smoothly performed | no toxicity |  |  | CMC ([1]; aqueous solution, compared to Fmoc-FFT): 22.8 µM; solubility ([1]; compared to Fmoc-FFT): improved
2 | NC(=O)C(CO)NC(=O)C(Cc1ccccc1)NC(=O)C(Cc1ccccc1)NC(=O)OCC1c2ccccc2-c2ccccc21 (stereo not drawn) [Fmoc-FFS] (Fmoc-Phe-Phe-Ser-NH2; configuration not given here) |  |  | had the IRI effect | significant cell viability | 
3 | CC(O)C(NC(=O)C(Cc1ccccc1)NC(=O)C(Cc1ccccc1)NC(=O)Cc1ccc2ccccc2c1)C(N)=O (stereo not shown) [Naph-FFT] |  |  | had IRI effects | significant cell viability | 
4 | CC(O)C(NC(=O)C(Cc1ccccc1)NC(=O)C(CC1=CN=C2C=CC=CC12)NC(=O)OCC1c2ccccc2-c2ccccc21)C(N)=O (stereo not shown) [Fmoc-WFT] |  |  | had IRI effects | significant cell viability | aggregation of gold particles after freezing/thawing (absorption peak shift 525 nm to 650 nm) [5]: an aggregation phenomenon was exhibited
5 | CC(O)C(NC(=O)C(CC1=c2ccccc2=NC1)NC(=O)C(CC1=CN=C2C=CC=CC12)NC(=O)OCC1c2ccccc2-c2ccccc21)C(N)=O (stereo not shown) [Fmoc-WWT] |  |  | had IRI effects | significant cell viability | rate of 2-cell embryo formation (sperms): ≥ 77%; aggregation of gold particles after freezing/thawing (absorption peak shift 525 nm to 650 nm) [5]: an aggregation phenomenon was exhibited
6 | CC(NC(=O)C(Cc1ccccc1)NC(=O)C(Cc1ccccc1)NC(=O)OCC1c2ccccc2-c2ccccc21)C(N)=O (stereo not drawn) [Fmoc-FFA] (Fmoc-Phe-Phe-Ala-NH2; configuration not given here) | survival and proliferation of mESC was smoothly performed | no toxicity | had the IRI effect |  | 
7 | C[S+](C)[O-] [DMSO, dimethyl sulfoxide, reference compound] |  | high toxicity |  |  | 
8 | Bovine serum albumin [BSA, reference compound] |  |  |  |  | aggregation of MPA-AuNP (color change) after freezing/thawing ([5]; MPA-AuNP + 2 μM BSA or PEG): aggregation did not occur
9 | CC(C)C(NC(=O)C(Cc1ccccc1)NC(=O)C(Cc1ccccc1)NC(=O)OCC1c2ccccc2-c2ccccc21)C(N)=O (stereo not drawn) [Fmoc-FFV] (Fmoc-Phe-Phe-Val-NH2; configuration not given here) |  |  | had the IRI effect | significant cell viability | 
10 | CC(O)C(NC(=O)C(Cc1ccccc1)NC(=O)C(Cc1ccccc1)NC(=O)OCC1c2ccccc2-c2ccccc21)C(N)=O (stereo not drawn) [Fmoc-FFT] (Fmoc-Phe-Phe-Thr-NH2; configuration not given here) | survival and proliferation of mESC was smoothly performed | no toxicity | had the IRI effect |  | relative IRI activity ([4]; comparison between materials, MLGS): highest IRI activity; size of tissue pore ([6]; thawed beef tissue refrozen in liquid nitrogen, cut at -20 °C): 5±2.3 μm; size of recrystallized ice ([6]; versus no Fmoc-FFT added, -20 °C): significantly smaller; also recorded: remarkably smaller
11 | NC(=O)C(Cc1ccccc1)NC(=O)C(Cc1ccccc1)NC(=O)OCC1c2ccccc2-c2ccccc21 (stereo not drawn) [Fmoc-FF] (Fmoc-Phe-Phe-NH2; configuration not given here) | survival and proliferation of mESC was smoothly performed | no toxicity |  |  | critical micellar concentration (CMC) ([1]; aqueous solution): 17 µM
